Source: patent US10364263B2, “Cyclic phosphates and cyclic phosphoramidates for the treatment of neurologic disorders” (Retrophin, Inc., priority 2015, dated 2019)

Test system: PANK2 silenced human neuroblastoma IMR32 cells (PANK2−/−)
Assay: Coenzyme A assay in PANK2 silenced cells (LC-MS quantification of free CoA)
Type: cell-based
Details: compound added twice (24 h + 24 h), relative to 0.1% DMSO controls
Experimental: A human neuroblastoma IMR32 cell line (ATCC) with stably PANK2 silencing was obtained by lentiviral-delivered small hairpin RNA and cultured in MEM (Invitrogen) supplemented with 10% fetal bovine serum, 2 mM glutamine, 1% penicillin-streptomycin, 1 mM sodium pyruvate, 1 mM non essential amino acids and 1.5 g/l sodium bicarbonate.
For lentiviral shRNA expression, Human Emryonic Kidney HEK-293T cells (ATCC) were transfected with the appropriate pGFP-Lenti-shRNA constructs and packaging plasmids according to manufacturer's protocol (Origene Technologies, Inc.). Four different gene-specific shRNA expression vectors designed against multiple splice variants of PANK2 (Gene ID 80025) were used for transfection. A non-silencing shRNA construct (scrambled shRNA) and an empty vector expressing GFP alone were used as negative controls. The GFP tag subcloned into the lentiviral vectors was used to monitor the transfection efficiency.
IMR32 cells were plated on 150 cm dishes 48 h before transduction with lentiviral particles.
Three days after transduction medium was removed and replaced with fresh medium containing […] puromycin. Medium was replaced every 48 h. Levels of PANK2 expression on selected clones was assessed by Western Blot analysis.
To quantify CoA, PANK2^−/− IMR32 cells were plated on 12-well culture plates (Corning) at a density of 0.2×10^6 cells per well. After 72 h, compounds were freshly dissolved in DMSO and added to the culture medium to yield a final solvent concentration of 0.1% (v/v). Controls with medium containing 0.1% DMSO without test compounds were also included in each plate. Compound treated cells were incubated for 24 h at 37° C. Treatment was repeated after 24 h with newly dissolved compound and cells were further incubated at 37° C. for additional 24 h. Before LC-MS analysis of CoA levels, cells were harvested, counted, and collected in a 15 ml falcon tube and centrifuged at 200×g for 5 min at 4° C. Supernatant was removed and cell pellet was washed in 10 ml of ice-cold PBS. To further confirm that the numbers of cells in each sample were equivalent, an equal fraction of pellet was collected from each sample and subjected to protein determination analysis. After centrifugation and supernatant removal, the cell pellet was rapidly frozen in Liquid Nitrogen and stored at −80° C. until analysis.
Intracellular CoA levels were calculated considering an intracellular volume of 1 million cells=2 μl.
The 1×10^6 cellular pellet was extracted with 120 μl of aqueous 20% TFA. This solution was stirred for 2 min, sonicated in ultrasonic bath for 2 min, then stirred again for 1 min, and centrifuged for 15 min at 14000 g and at 4° C.
100 μL samples of supernatant were dried under N2 at 20° C. in the dark.
Samples were re-dissolved in 100 μl of 10 mM NH4^+ AcO^− buffer pH 5.1+IS (Dextrorphan 50 ng/ml), stirred for 2 min, sonicated in ultrasonic bath for 1 min, then stirred again for 1 min, and injected into LC-MS.
LC-MS/MS was performed using an Agilent HPLC (1100 Series, USA). The LC system was interfaced with an API-4000 Q-Trap triple quadrupole mass spectrometer (AB Sciex, Toronto, Canada) equipped with a TurbolonSpray ionization source operating in positive ion mode. Analyst™ software version 1.6 (AB Sciex, Toronto, Canada) was used for data acquisition and processing. CoA was separated using a Luna C18 column (2.0×50 mm; 5 μm particle size), column at 25° C. and flow rate of 0.2 ml/min. Injection volume was 15 μl. The mobile phases consisted of water containing 10 mM ammonium acetate pH 7 (mobile phase A) and MeCN-2-propanol 9:1 (mobile phase B). Elution was performed using a gradient starting at 2% B, holding at 2% B until 0.1 min, increasing to 98% B at 3.2 min, holding at 98% B until 4.5 min, returning to 2% B at 4.6 min and holding at 2% B until 7.5 min. Precursor ions and MRM transitions used were: CoA m/z 768.1→261.6 and 768.1→136.1. […]

Compound	PANK2−/− CoA (Fold Increase): fold increase in Coenzyme A (CoA) levels relative to controls
CCOC(=O)[C@H](CCc1ccccc1)NP1(=O)OCC(C)(C)[C@H](C(=O)NCCC(=O)OC)O1 (stereo partly drawn) [compound 6, ethyl (2S)-2-[[(4R)-4-[(3-methoxy-3-oxo-propyl)carbamoyl]-5,5-dimethyl-2-oxo-1,3,2-dioxaphosphinan-2-yl]amino]-4-phenyl-butanoate]	1.11 Fold Increase
COC(=O)CCNC(=O)[C@@H]1O[P@@](=O)(OCOC(=O)c2cc(C)nn2C)OCC1(C)C [2-182, (((2S,4R)-4-((3-methoxy-3-oxopropyl)carbamoyl)-5,5-dimethyl-2-oxido-1,3,2-dioxaphosphinan-2-yl)oxy)methyl 1,3-dimethyl-lH-pyrazole-5-carboxylate]	24.98 Fold Increase
COC(=O)[C@H](C)N[P@@]1(=O)OCC(C)(C)[C@H](C(=O)NCCC(=O)OCc2ccncc2)O1 (single isomer, unassigned) [compound 18, methyl ((2R,4R)-5,5-dimethyl-2-oxido-4-((3-oxo-3-(pyridin-4-ylmethoxy)propyl)carbamoyl)-1,3,2-dioxaphosphinan-2-yl)-L-alaninate or methyl ((2S,4R)-5,5-dimethyl-2-oxido-4-((3-oxo-3-(pyridin-4-ylmethoxy)propyl)carbamoyl)-1,3,2-dioxaphosphinan-2-yl)-L-alaninate]	2.06 Fold Increase
COC(=O)CCNC(=O)[C@@H]1O[P@](=O)(OCOC(=O)N[C@@H](CSC(=O)C(C)(C)C)C(=O)OCc2ccccc2)OCC1(C)C [2-206, benzyl N-(((((2R,4R)-4-((3-methoxy-3-oxopropyl)carbamoyl)-5,5-dimethyl-2-oxido-1,3,2-dioxaphosphinan-2-yl)oxy)methoxy)carbonyl)-S-pivaloyl-L-cysteinate]	64.41 Fold Increase
COC(=O)CCNC(=O)[C@@H]1O[P@@](=O)(Oc2ccc(S(F)(F)(F)(F)F)cc2)OCC1(C)C [2-124, methyl 3-((2S,4R)-5,5-dimethyl-2-oxido-2-(4-(pentafluoro-16-sulfanyl)phenoxy)-1,3,2-dioxaphosphinane-4-carboxamido)propanoate]	1.12 Fold Increase
COC(=O)CCNC(=O)[C@@H]1O[P@](=O)(OCOC(=O)c2sncc2C)OCC1(C)C [2-177, (((2R,4R)-4-((3-methoxy-3-oxopropyl)carbamoyl)-5,5-dimethyl-2-oxido-1,3,2-dioxaphosphinan-2-yl)oxy)methyl 4-methylisothiazole-5-carboxylate]	77.18 Fold Increase
COC(=O)CCNC(=O)[C@@H]1OP(=O)(OCOC(=O)c2cc(C)nn2C)OCC1(C)C (stereo partly drawn) [2-145, (((4R)-4-((3-methoxy-3-oxopropyl)carbamoyl)-5,5-dimethyl-2-oxido-1,3,2-dioxaphosphinan-2-yl)oxy)methyl 1,3-dimethyl-1H-pyrazole-5-carboxylate]	42.44 Fold Increase
COC(=O)CCNC(=O)[C@@H]1OP(=O)(OCOC(=O)NCCOC(C)=O)OCC1(C)C (stereo partly drawn) [2-168, methyl 3-((4R)-2-((((2-acetoxyethyl)carbamoyl)oxy)methoxy)-5,5-dimethyl-2-oxido-1,3,2-dioxaphosphinane-4-carboxamido)propanoate]	2.69 Fold Increase
CC(C)OC(=O)OCO[P@@]1(=O)OCC(C)(C)[C@H](C(=O)NCCC(=O)OC(C)(C)C)O1 [compound 105, tert-butyl 3-((2S,4R)-2-(((isopropoxycarbonyl)oxy)methoxy)-5,5-dimethyl-2-oxido-1,3,2-dioxaphosphinane-4-carboxamido)propanoate]	4.72 Fold Increase
COC(=O)CCNC(=O)[C@@H]1O[P@@](=O)(N[C@@H](C)C(=O)OC)OCC1(C)C [1-52, methyl 3-((2R,4R)-2-(((S)-1-methoxy-1-oxopropan-2-yl)amino)-5,5-dimethyl-2-oxido-3,3,2-dioxaphosphinane-4-carboxamido)propanoate]	2.09 Fold Increase
COC(=O)CCNC(=O)[C@@H]1O[P@@](=O)(N2CCS(=O)(=O)CC2)OCC1(C)C [compound 137, methyl 3-((2R,4R)-2-(1,1-dioxidothiomorpholino)-5,5-dimethyl-2-oxido-1,3,2-dioxaphosphinane-4-carboxamido) propanoate]	1.76 Fold Increase
COC(=O)CCNC(=O)[C@@H]1OP(=O)(N[C@H](C(=O)OC)C2CCCCC2)OCC1(C)C (stereo partly drawn) [compound 12, methyl 3-((4R)-2-(((S)-1-cyclohexyl-2-methoxy-2-oxoethyl)amino)-5,5-dimethyl-2-oxido-1,3,2-dioxaphosphinane-4-carboxamido)propanoate]	1.28 Fold Increase
CC(C)OC(=O)CCNC(=O)[C@@H]1OP(=O)(O)OCC1(C)C [2-110, isopropyl 3-((4R)-2-hydroxy-5,5-dimethyl-2-oxido-1,3,2-dioxaphosphinane-4-carboxamido)propanoate]	2.17 Fold Increase
COC(=O)CCNC(=O)[C@@H]1O[P@@](=O)(OCOC(=O)N[C@@H](CSC(=O)C(C)(C)C)C(=O)O)OCC1(C)C [2-200, N-(((((2S,4R)-4-((3-methoxy-3-oxopropyl)carbamoyl)-5,5-dimethyl-2-oxido-1,3,2-dioxaphosphinan-2-yl)oxy)methoxy)carbonyl)-S-pivaloyl-L-cysteine]	1.84 Fold Increase
COC(=O)CCNC(=O)[C@@H]1OP(=O)(N[C@@H](Cc2ccccc2)C(=O)OC)OCC1(C)C (stereo partly drawn) [compound 9, methyl ((4R)-4-((3-methoxy-3-oxopropyl)carbamoyl)-5,5-dimethyl-2-oxido-1,3,2-dioxaphosphinan-2-yl)-L-phenylalaninate]	1.83 Fold Increase
COC(=O)CCNC(=O)[C@@H]1OP(=O)(OCOC(=O)NCCSC(=O)[C@@H](NC(=O)OCc2ccccc2)C(C)C)OCC1(C)C (stereo partly drawn) [2-175, methyl 3-((4R)-2-(((S)-9-isopropyl-3,8,11-trioxo-13-phenyl-2,12-dioxa-7-thia-4,10-diazatridecyl)oxy)-5,5-dimethyl-2-oxido-1,3,2-dioxaphosphinane-4-carboxamido)propanoate]	9.31 Fold Increase
COC(=O)CCNC(=O)[C@@H]1OP(=O)(OCOC(=O)[C@H]2COC(=O)N2C(=O)OC(C)(C)C)OCC1(C)C (stereo partly drawn) [2-196, 3-(tert-butyl) 4-((((4R)-4-((3-methoxy-3-oxopropyl)carbamoyl)-5,5-dimethyl-2-oxido-1,3,2-dioxaphosphinan-2-yl)oxy)methyl) (4R)-2-oxooxazolidine-3,4-dicarboxylate]	1.97 Fold Increase
COC(=O)CCNC(=O)[C@@H]1O[P@@](=O)(OCOC(=O)NC(C)(C)COC(=O)[C@@H](NC(=O)OCc2ccccc2)C(C)C)OCC1(C)C [2-172, 2-((((((2S,4R)-4-((3-methoxy-3-oxopropyl)carbamoyl)-5,5-dimethyl-2-oxido-1,3,2-dioxaphosphinan-2-yl)oxy)methoxy)carbonyl)amino)-2-methylpropyl ((benzyloxy)carbonyl)-L-valinate]	1.95 Fold Increase
COC(=O)CCNC(=O)[C@@H]1O[P@@](=O)(OCOC(=O)c2cnco2)OCC1(C)C (single isomer, unassigned) [2-151]	17.56 Fold Increase
